Results on 15 molecules are retold here after ChEMBL document CHEMBL1124679, “A novel lead for specific anti-HIV-1 agents: 1-[(2-hydroxyethoxy)methyl]-6-(phenylthio)thymine” (J Med Chem, 1989).

Test [1] relates to MT4. The test is described as follows: Concentration required to achieve 50% protection of MT-4 cells against cytopathic effect of HIV-1. The class given is functional, cell-based. Particulars: Homo sapiens. (Protection from cytopathic effect is a common read-out in antiviral testing.)
Test [2] can be described thus: Selectivity index is the ratio of CC50/EC50. Type of test: functional.
The subject of test [3] is MT4. In words: Cytotoxic concentration of compound required to reduce the viability of mock-infected MT-4 cells by 50%. The class given is functional. Particulars: Homo sapiens.
Test [4] concerns the target T1, Human immunodeficiency virus type 1 reverse transcriptase (Human immunodeficiency virus 1, UniProt Q72547). In words: Inhibitory effect on HIV-1 reverse transcriptase activity using poly(rA)-oligo(dT) template primer.
The target of test [5] is T1, Human immunodeficiency virus type 1 reverse transcriptase. In words: Inhibitory effect on HIV-1 reverse transcriptase activity using poly(rC)-oligo(dG) template primer.

Usually EC50 stands for the concentration giving half of the maximal effect. A low value points to an effect from little substance. What is called CC50 is the concentration at which the toxic effect on the cells reaches its halfway point. As a reminder, the IC50 is the point on the concentration scale where inhibition reaches its midpoint. High values mean lower potency, low ones higher potency.

The molecule `O=c1[nH]c(=O)n(COCCO)c(I)c1Br` had an EC50 in test [1] of over 5 µM. The SI in test [2] was under 2.3. Moreover, in test [3], it took 11.5 µM to reach half-maximal cytotoxicity (CC50).

In the case of `O=c1[nH]c(=O)n(COCCO)c(Sc2ccccc2)c1Br`, the EC50 in test [1] is over 20 µM. Further, the SI in test [2] is under 2.2. Besides, the half-maximal cytotoxic concentration (CC50) in test [3] was found to be 44 µM.

With `Cc1c(I)n(COCCO)c(=O)[nH]c1=O`, in test [1], the concentration for a half-maximal effect (EC50) was over 80 µM. Moreover, in test [2], the SI was under 5. This molecule also came in with a half-maximal cytotoxic concentration (CC50) in test [3] of 400 µM.

On to `Cc1cn(C2CC(N=[N+]=[N-])C(COP(=O)(O)P(=O)(O)P(=O)(O)O)O2)c(=O)[nH]c1=O` (stereo not drawn), for which, in test [4], 0.034 µM corresponded to half-maximal inhibition (IC50).

Consider `Cc1cn([C@H]2C[C@H](N=[N+]=[N-])[C@@H](CO)O2)c(=O)[nH]c1=O` [ZIDOVUDINE], for which the half-maximal effective concentration (EC50) in test [1] worked out at 0.016 µM. Moreover, the SI in test [2] came out at 1250. Moreover, the half-maximal cytotoxic concentration (CC50) in test [3] was found to be 20 µM.

In test [1], `O=c1cc(I)n(COCCO)c(=O)[nH]1` returned an EC50 of over 30 µM. Also, the SI in test [2] was under 2.5. Moreover, the CC50 in test [3] is 75 µM.

As for `O=c1[nH]c(=O)n(COCCO)c(Sc2ccccc2)c1Cl`, the concentration giving a half-maximal response (EC50) in test [1] is over 30 µM. Also, the SI in test [2] is under 3.4. The molecule also showed a CC50 in test [3] of 100 µM.

Turning to `Nc1ccn([C@H]2CC[C@@H](CO)O2)c(=O)n1` [ZALCITABINE], the response in test [1] was half-maximal at 0.3 µM (EC50). For the same molecule, the SI in test [2] was 133. The molecule further registered a CC50 in test [3] of 40 µM.

In turn, `O=c1[nH]c(=O)n(COCCO)c(I)c1Cl` registered an EC50 in test [1] of over 6 µM. Besides, the SI in test [2] was under 2.2. Also, in test [3], the midpoint of cytotoxicity, the CC50, lay at 13 µM.

In the case of `Cc1c(Sc2ccccc2)n(COCCO)c(=O)[nH]c1=O` [HEPT], the EC50 in test [1] amounted to 7 µM. Further, the half-maximal inhibitory concentration (IC50) in test [5] was 150 µM; in test [4], over 500 µM. In test [3], this molecule showed a CC50 of 740 µM.

Consider `O=c1[nH]c(=O)n(COCCO)c(I)c1F`, for which, in test [1], the EC50 is over 15 µM. Moreover, the SI in test [2] is under 2.1. In test [3], this molecule showed a CC50 of 32 µM.

As for `Cc1c(Sc2ccccc2)n(COCCOP(=O)(O)P(=O)(O)P(=O)(O)O)c(=O)[nH]c1=O`, the half-inhibitory concentration (IC50) in test [5] was 500 µM; in test [4], 280 µM.

`O=c1[nH]c(=O)n(COCCO)c(Sc2ccccc2)c1F`: in test [1], the EC50 is over 100 µM. The SI in test [2] was under 2.9. In test [3], this molecule showed a 50% cytotoxic concentration (CC50) of 288 µM.

Turning to `O=c1cc(Sc2ccccc2)n(COCCO)c(=O)[nH]1`, the EC50 in test [1] is over 500 µM. Also, in test [2], the SI is under 3.7. The molecule further yielded a half-maximal cytotoxic concentration (CC50) in test [3] of 1850 µM.

Take `Nc1ncnc2c1ncn2[C@H]1CC[C@@H](CO)O1`: the EC50 in test [1] was 6.3 µM. In test [2], the SI amounted to 141. Further, the CC50 in test [3] was 890 µM.
